Key:
Experiment in all cases: relative viability (nuclei count vs DMSO), 5 days (fraction); higher = more cells survive
Avagacestat + Dasatinib = compound: NC(=O)[C@@H](CCC(F)(F)F)N(Cc1ccc(-c2ncon2)cc1F)S(=O)(=O)c1ccc(Cl)cc1 [Avagacestat] + Cc1nc(Nc2ncc(C(=O)Nc3c(C)cccc3Cl)s2)cc(N2CCN(CCO)CC2)n1 [Dasatinib] (partner 0.075 µM)
Method in brief: (§1)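 The day after seeding in 1536-well plates, lung cancer cell lines were treated by pin tool with a single drug, or with a fixed anchor-drug dose together with five library-drug doses (not always all listed) in √10 steps. After 5 days, a combined fix-and-stain solution (final 0.05% Triton X-100, 1% formaldehyde, 1 ug/ml Hoechst) was added. Nuclei counted on 4× images gave relative viability as treated counts over vehicle counts, reported as the median of duplicate plates.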

Avagacestat + Crizotinib = compound: NC(=O)[C@@H](CCC(F)(F)F)N(Cc1ccc(-c2ncon2)cc1F)S(=O)(=O)c1ccc(Cl)cc1 [Avagacestat] + C[C@@H](Oc1cc(-c2cnn(C3CCNCC3)c2)cnc1N)c1c(Cl)ccc(F)c1Cl [Crizotinib] (partner 1 µM)
Method in brief: as §1

Avagacestat + Lapatinib = compound: NC(=O)[C@@H](CCC(F)(F)F)N(Cc1ccc(-c2ncon2)cc1F)S(=O)(=O)c1ccc(Cl)cc1 [Avagacestat] + CS(=O)(=O)CCNCc1ccc(-c2ccc3ncnc(Nc4ccc(OCc5cccc(F)c5)c(Cl)c4)c3c2)o1 [Lapatinib] (partner 2 µM)
Method in brief: as §1

Avagacestat + Pemetrexed = compound: NC(=O)[C@@H](CCC(F)(F)F)N(Cc1ccc(-c2ncon2)cc1F)S(=O)(=O)c1ccc(Cl)cc1 [Avagacestat] + Nc1nc2[nH]cc(CCc3ccc(C(=O)N[C@@H](CCC(=O)O)C(=O)O)cc3)c2c(=O)[nH]1 [Pemetrexed] (partner 0.2 µM)
Method in brief: as §1

| Cell Line | relative viability (Avagacestat + Dasatinib; first compound 0.08 µM) | relative viability (Avagacestat + Dasatinib; first compound 0.253 µM) | relative viability (Avagacestat + Dasatinib; first compound 0.8 µM) | relative viability (Avagacestat + Dasatinib; first compound 2.53 µM) | relative viability (Avagacestat + Dasatinib; first compound 8 µM) | relative viability (Avagacestat + Crizotinib; first compound 0.08 µM) | relative viability (Avagacestat + Crizotinib; first compound 0.253 µM) | relative viability (Avagacestat + Crizotinib; first compound 0.8 µM) | relative viability (Avagacestat + Crizotinib; first compound 2.53 µM) | relative viability (Avagacestat + Crizotinib; first compound 8 µM) | relative viability (Avagacestat + Lapatinib; first compound 0.08 µM) | relative viability (Avagacestat + Lapatinib; first compound 0.253 µM) | relative viability (Avagacestat + Lapatinib; first compound 0.8 µM) | relative viability (Avagacestat + Lapatinib; first compound 2.53 µM) | relative viability (Avagacestat + Lapatinib; first compound 8 µM) | relative viability (Avagacestat + Pemetrexed; first compound 0.08 µM) | relative viability (Avagacestat + Pemetrexed; first compound 0.253 µM) | relative viability (Avagacestat + Pemetrexed; first compound 0.8 µM) | relative viability (Avagacestat + Pemetrexed; first compound 2.53 µM) | relative viability (Avagacestat + Pemetrexed; first compound 8 µM) |
| --- | --- | --- | --- | --- | --- | --- | --- | --- | --- | --- | --- | --- | --- | --- | --- | --- | --- | --- | --- | --- |
| LC-2-ad | 0.558 | 0.489 | 0.646 | 0.447 | 0.343 | 0.548 | 0.367 | 0.458 | 0.435 | 0.391 | 1.04 | 1.16 | 1.03 | 0.996 | 0.867 | 0.286 | 0.276 | 0.264 | 0.263 | 0.273 |
| H3255 | 0.362 | 0.347 | 0.57 | 0.379 | 0.313 | 1.05 | 1.07 | 1.01 | 0.872 | 0.865 | 0.262 | 0.259 | 0.3 | 0.244 | 0.276 | 0.57 | 0.622 | 0.591 | 0.552 | 0.557 |
| LCLC-97TM1 | 0.945 | 0.86 | 0.757 | 0.866 | 0.706 | 0.317 | 0.289 | 0.301 | 0.241 | 0.397 | 0.771 | 1.29 | 0.977 | 0.703 | 0.86 | 0.177 | 0.177 | 0.159 | 0.166 | 0.146 |
| LU99A | 0.483 | 0.542 | 0.455 | 0.444 | 0.471 | 0.521 | 0.646 | 0.571 | 0.595 | 0.628 | 1.01 | 1.2 | 1.25 | 1.06 | 1.1 | 0.25 | 0.232 | 0.182 | 0.226 | 0.155 |
| NCI-H1651 | 0.477 | 0.426 | 0.454 | 0.38 | 0.342 | 1 | 0.928 | 0.896 | 0.879 | 0.863 | 1.11 | 1.03 | 0.883 | 0.762 | 0.672 | 0.71 | 0.591 | 0.731 | 0.574 | 0.559 |
| NCI-H322M | 0.281 | 0.242 | 0.247 | 0.251 | 0.257 | 0.874 | 1.03 | 0.952 | 0.934 | 0.787 | 0.556 | 0.555 | 0.601 | 0.504 | 0.432 | 0.621 | 0.619 | 0.632 | 0.608 | 0.569 |
| SK-LU-1 | 0.172 | 0.138 | 0.18 | 0.142 | 0.189 | 0.843 | 0.858 | 0.946 | 0.786 | 0.753 | 0.956 | 0.852 | 0.889 |  | 0.73 | 1.19 | 0.972 | 0.951 | 0.97 | 0.741 |
| NCI-H1666 | 0.819 | 0.739 | 0.876 | 0.783 | 0.653 | 1.3 | 1.09 | 1.23 | 1.03 | 0.957 | 0.858 | 0.877 | 0.756 | 0.639 | 0.523 | 0.938 | 0.871 | 0.877 | 0.822 | 0.889 |
| NCI-H2126 | 0.588 | 0.587 | 0.606 | 0.467 | 0.582 | 1.07 | 1.14 | 0.977 | 1.04 | 1.04 | 0.767 | 0.837 | 0.805 | 0.722 | 0.657 | 0.67 | 0.687 | 0.698 | 0.605 | 0.683 |

— the supplement of paper PMC10307832
